Experimental data published in BindingDB's records for doi:10.1002/cbic.200500089 (Progen Industries, 2005).

Experiments:
[1] = biological target: Fibroblast growth factor 1 (Homo sapiens, UniProt P05230); experiment: Binding Assay; conditions: pH 7.4
Protocol: (§1) Human FGF-1 and FGF-2 were purchased from R&D Systems, Inc. and supplied as protein (ug) dissolved in bovine serum albumin (BSA, 50ug). Surface plasmon resonance (SPR) measurements were performed on a BIA-core 3000 from BIAcore, Uppsala, Sweden and operated by the BIAcore control software.

[2] = biological target: Fibroblast growth factor 2 (Homo sapiens, UniProt P09038); experiment: Binding Assay; conditions: pH 7.4
Protocol: as §1

Chain of Fibroblast growth factor 1 (P05230 whole entry): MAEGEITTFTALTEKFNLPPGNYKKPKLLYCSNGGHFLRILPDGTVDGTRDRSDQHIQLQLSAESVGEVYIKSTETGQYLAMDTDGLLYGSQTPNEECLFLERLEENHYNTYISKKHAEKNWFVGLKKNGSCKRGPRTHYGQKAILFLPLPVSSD
Chain of Fibroblast growth factor 2 (P09038 143-288 limits assumed): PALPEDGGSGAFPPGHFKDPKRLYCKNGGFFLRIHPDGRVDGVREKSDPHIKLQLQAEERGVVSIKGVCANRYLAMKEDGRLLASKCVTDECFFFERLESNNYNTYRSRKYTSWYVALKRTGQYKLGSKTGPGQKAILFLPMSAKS

Row | Kd [1] [nM] | Kd [2] [nM] | Structure (SMILES)
1 | 20.7 | 1100 | O=S(=O)(O)O[C@H]1[C@H](OS(=O)(=O)O)[C@@H](N(CCN([C@H]2C=C[C@@H](OS(=O)(=O)O)[C@@H](OS(=O)(=O)O)[C@@H]2OS(=O)(=O)O)[C@H]2C=C[C@@H](OS(=O)(=O)O)[C@@H](OS(=O)(=O)O)[C@@H]2OS(=O)(=O)O)[C@H]2C=C[C@@H](OS(=O)(=O)O)[C@@H](OS(=O)(=O)O)[C@@H]2OS(=O)(=O)O)C=C[C@H]1OS(=O)(=O)O [Linked sulfated tetracyclitol, 2]
2 | 7.2 | 248 | O=S(=O)(O)O[C@H]1[C@H](OS(=O)(=O)O)[C@@H](N(CCCN([C@H]2C=C[C@@H](OS(=O)(=O)O)[C@@H](OS(=O)(=O)O)[C@@H]2OS(=O)(=O)O)[C@H]2C=C[C@@H](OS(=O)(=O)O)[C@@H](OS(=O)(=O)O)[C@@H]2OS(=O)(=O)O)[C@H]2C=C[C@@H](OS(=O)(=O)O)[C@@H](OS(=O)(=O)O)[C@@H]2OS(=O)(=O)O)C=C[C@H]1OS(=O)(=O)O [Linked sulfated tetracyclitol, 3]
3 | 25.4 | 161 | O=S(=O)(O)O[C@H]1[C@H](OS(=O)(=O)O)[C@@H](N(CCCCN([C@H]2C=C[C@@H](OS(=O)(=O)O)[C@@H](OS(=O)(=O)O)[C@@H]2OS(=O)(=O)O)[C@H]2C=C[C@@H](OS(=O)(=O)O)[C@@H](OS(=O)(=O)O)[C@@H]2OS(=O)(=O)O)[C@H]2C=C[C@@H](OS(=O)(=O)O)[C@@H](OS(=O)(=O)O)[C@@H]2OS(=O)(=O)O)C=C[C@H]1OS(=O)(=O)O [Linked sulfated tetracyclitol, 4]
4 | 29.8 | 148 | O=S(=O)(O)O[C@H]1[C@H](OS(=O)(=O)O)[C@@H](N(CCCCCN([C@H]2C=C[C@@H](OS(=O)(=O)O)[C@@H](OS(=O)(=O)O)[C@@H]2OS(=O)(=O)O)[C@H]2C=C[C@@H](OS(=O)(=O)O)[C@@H](OS(=O)(=O)O)[C@@H]2OS(=O)(=O)O)[C@H]2C=C[C@@H](OS(=O)(=O)O)[C@@H](OS(=O)(=O)O)[C@@H]2OS(=O)(=O)O)C=C[C@H]1OS(=O)(=O)O [Linked sulfated tetracyclitol, 5]
5 | 39 | 135 | O=S(=O)(O)O[C@H]1[C@H](OS(=O)(=O)O)[C@@H](N(CCCCCCN([C@H]2C=C[C@@H](OS(=O)(=O)O)[C@@H](OS(=O)(=O)O)[C@@H]2OS(=O)(=O)O)[C@H]2C=C[C@@H](OS(=O)(=O)O)[C@@H](OS(=O)(=O)O)[C@@H]2OS(=O)(=O)O)[C@H]2C=C[C@@H](OS(=O)(=O)O)[C@@H](OS(=O)(=O)O)[C@@H]2OS(=O)(=O)O)C=C[C@H]1OS(=O)(=O)O [Linked sulfated tetracyclitol, 6]
6 | 8 | 90 | O=S(=O)(O)O[C@H]1[C@H](OS(=O)(=O)O)[C@@H](N(CCCCCCCN([C@H]2C=C[C@@H](OS(=O)(=O)O)[C@@H](OS(=O)(=O)O)[C@@H]2OS(=O)(=O)O)[C@H]2C=C[C@@H](OS(=O)(=O)O)[C@@H](OS(=O)(=O)O)[C@@H]2OS(=O)(=O)O)[C@H]2C=C[C@@H](OS(=O)(=O)O)[C@@H](OS(=O)(=O)O)[C@@H]2OS(=O)(=O)O)C=C[C@H]1OS(=O)(=O)O [Linked sulfated tetracyclitol, 7]
7 | 40.4 | 108 | O=S(=O)(O)O[C@H]1[C@H](OS(=O)(=O)O)[C@@H](N(CCCCCCCCN([C@H]2C=C[C@@H](OS(=O)(=O)O)[C@@H](OS(=O)(=O)O)[C@@H]2OS(=O)(=O)O)[C@H]2C=C[C@@H](OS(=O)(=O)O)[C@@H](OS(=O)(=O)O)[C@@H]2OS(=O)(=O)O)[C@H]2C=C[C@@H](OS(=O)(=O)O)[C@@H](OS(=O)(=O)O)[C@@H]2OS(=O)(=O)O)C=C[C@H]1OS(=O)(=O)O [Linked sulfated tetracyclitol, 8]
8 | 119 | 194 | O=S(=O)(O)O[C@H]1[C@H](OS(=O)(=O)O)[C@@H](N(CCCCCCCCCN([C@H]2C=C[C@@H](OS(=O)(=O)O)[C@@H](OS(=O)(=O)O)[C@@H]2OS(=O)(=O)O)[C@H]2C=C[C@@H](OS(=O)(=O)O)[C@@H](OS(=O)(=O)O)[C@@H]2OS(=O)(=O)O)[C@H]2C=C[C@@H](OS(=O)(=O)O)[C@@H](OS(=O)(=O)O)[C@@H]2OS(=O)(=O)O)C=C[C@H]1OS(=O)(=O)O [Linked sulfated tetracyclitol, 9]
9 | 115 | 448 | O=S(=O)(O)O[C@H]1[C@H](OS(=O)(=O)O)[C@@H](N(CCCCCCCCCCN([C@H]2C=C[C@@H](OS(=O)(=O)O)[C@@H](OS(=O)(=O)O)[C@@H]2OS(=O)(=O)O)[C@H]2C=C[C@@H](OS(=O)(=O)O)[C@@H](OS(=O)(=O)O)[C@@H]2OS(=O)(=O)O)[C@H]2C=C[C@@H](OS(=O)(=O)O)[C@@H](OS(=O)(=O)O)[C@@H]2OS(=O)(=O)O)C=C[C@H]1OS(=O)(=O)O [Linked sulfated tetracyclitol, 10]
